# Measurements reported in PMC7039890, “Aedes aegypti Odorant Binding Protein 22 selectively binds fatty acids through a conformational change in its C-terminal tail” (Scientific Reports, 2020).
# Where “and” joins values, the source holds several entries; their conditions need not be identical. Equal values may be shown once. Read-outs that look alike come from different tables or passages of the source.
# Assays:
# AeOBP22 [1] = molecular target: T1, AeOBP22 (Aedes aegypti, UniProt Q1HRL7); experiment: NMR 1H-15N HSQC ligand screening / chemical shift perturbation; assay type: binding; details: protein 100 μM, sodium phosphate pH 6.5; for binding to AeOBP22 judged by NMR: result in words
# T1 construct: The mature form of AeOBP22 lacking the N-terminal signal peptide was expressed and purified as previously described; made in house
# T1 sequence (Q1HRL7 17-138): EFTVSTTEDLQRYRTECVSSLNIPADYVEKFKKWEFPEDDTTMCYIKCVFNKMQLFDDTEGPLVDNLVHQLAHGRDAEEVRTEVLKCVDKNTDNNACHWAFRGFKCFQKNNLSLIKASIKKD
# Method: NMR experiments were performed at 25 °C on a either a Varian 900 MHz DD2, Varian INOVA 600 MHz or Bruker Avance Neo 600 MHz spectrometer. Samples for NMR were dissolved in sodium phosphate (20 mM, pH 6.5) and 90% H2O/10% D2O, with DSS (4,4-dimethyl-4-silapentane-1-sulfonic acid) (80 μM) added as an internal reference,[90]. For ligand screening, protein concentration was 100 μM and ligands were added to a concentration of 200–500 μM. For chemical shift assignments, relaxation rate measurements and structure calculations, protein concentrations were in the 400–700 μM range. All NMR experiments were collected using non uniform sampling methods[91] using the Poisson-gap sampling schemes implemented by Hyberts et al.[92] with a sampling density of 25–50%. Data were processed using the istHMS package v2111[93],[94] in combination with NmrPipe[95] and analyzed using Ccpnmr Analysis v 2.4.2[96].
# Chemical shift assignments for the complex with arachidonic acid and the backbone assignments for the apo-protein were previously reported. Backbone ^1H, ^15N, ^13Cα and ^13Cβ assignments for nonadecanoic, linoleic acid (pH 4.5 and pH 6.5), and decanoic acids were made in the same way. All other backbone amide assignments were made by following chemical shift trajectories as a function of ligand concentration or chain length. Normalized chemical shift differences are reported as[97],[98]1 Δδ=(ΔδH^2+0.14∗ΔδN^2)
# AeOBP22 [2] = molecular target: T1, AeOBP22; experiment: 1-NPN fluorescent reporter binding; details: result in words
# AeOBP22 [3] = molecular target: T1, AeOBP22; experiment: DAF based competition binding assay (recovery of DAF fluorescence by fatty acids); details: for Kd: pH 8.0 (HEPES 50 mM pH 8.1), 25 °C, ± s.d., n = 3
# Method: Binding affinities were determined by monitoring the recovery of DAF florescence as a function of fatty acid concentration. Stock solutions of fatty acid were made by dissolving the fatty acid in 100% DMSO, and then making a 1:1000 dilution into HEPES (50 mM pH 8.1). Samples were vortexed prior to each titration point. The protein/DAF solution contained fixed concentrations of DAF (100 nM) and AeOBP22 (1000 nM).
# As there is a single binding site for the fatty acid and the effect of fluorescence quenching can be completely reversed by increasing concentrations of fatty acids, we concluded that the fatty acid is directly competitive with binding of the DAF reporter. Therefore, the term for KD in Eq. 2 can be replaced with Eq. 3.3 Kapp=KD(1+I/KI) where I is the concentration of the competitor and KI is the dissociation constant of the competitor. The emission maxima were fit using Eq. 2 substituted into Eq. 1, with the concentration of the protein and DAF fixed at their known concentrations.
# AeOBP22 [4] = molecular target: T1, AeOBP22; experiment: DAF fluorescence quenching titration with AeOBP22 (direct binding); details: for Kd: direct titration, fluorescence quenching at 513 nm, n = 7
# Method: All fluorescence experiments were recorded at 25 °C on a Horiba Fluorolog 3–1–1 spectrofluorometer. DAF spectra were acquired using an excitation wavelength of 490 nm and the emission recorded between 500 and 560 nm at 1 nm intervals with an integration time of 1 s and slit widths of 2 nm. Stock solutions of DAF (Thermo Fisher, Batch D-109) were prepared in methanol with potassium hydroxide (0.2 M) and the concentration measured by UV spectroscopy using an extinction coefficient of 88000 M^−1 cm^−1 at 497 nm provided in the certificate of analysis. A 1:100 dilution was made into HEPES (50 mM, pH 8.1) and the sample vortexed and checked by UV to verify the DAF concentration. A solution of DAF (~80–100 nM) was titrated with increasing AeOBP22 to a final concentration of ~4 μM. The fluorescence intensity (cps) at the emission maxima (513 nm) was plotted against the total concentration of AeOBP22 and the KD for DAF was determined by fitting the raw fluorescence intensity for each replicate to Eq. (1):2 Fi=F0(1−([PT+LT+KD]−[PT+LT+KD]^2−4PTLT)/2LT)−Fmin where Fi is the measured fluorescence, F0 is the initial fluorescence in the absence of any protein, PT is the total protein, LT is the total concentration of DAF, and Fmin is the residual fluorescence after maximal quenching by the protein.
# AeOBP22 [5] = molecular target: T1, AeOBP22; experiment: DAF based competition binding assay (recovery of DAF fluorescence by fatty acids)
# [6] = DAF competition, DAF 100 nM, protein 1000 nM, read-out: KD (nM) for binding of fatty acids to AeOBP22
# [7] = KD (nM) for binding of fatty acids to AeOBP22, DAF competition, DAF 100 nM, protein 1000 nM
# [8] = DAF competition, DAF 100 nM, protein 1000 nM, pH 8.0, n = 3, read-out: KI (dissociation constant of the competitor)
molecule,measurement,setting,value
"CCCCCCCC/C=C\CCCCCCCC(=O)OC[C@@H](O)COP(=O)(O)O [C16-LPA, lyso-phosphatidic acid]",binding to AeOBP22 judged by NMR,AeOBP22 [1],failed to identify
c1ccc(Nc2cccc3ccccc23)cc1 [1-NPN],binding of 1-NPN reporter to AeOBP22,AeOBP22 [2],bound with low affinity
"CCCCCCCCCCCCCCCC(=O)O [C16:0, palmitic acid]",Kd,AeOBP22 [3]; [6],689 ± 89 nM
"CCCCCC/C=C\CCCCCCCC(=O)O [C16:1, palmitoleic acid]",Kd,AeOBP22 [3]; [6],175 ± 41 nM
"CCCCCCCC/C=C\CCCCCCCC(=O)O [C18:1, Oleic acid]",Kd,AeOBP22 [3]; [6],85 nM and 84 nM
"CCCCCCCCCCCC(=O)Nc1ccc2c(c1)C(=O)OC21c2ccc(O)cc2Oc2cc(O)ccc21 [DAF, 5-(N-dodecanoyl)-amino-fluorescein]",Kd,"AeOBP22 [4]; HEPES pH 8.1, 25 °C, ± s.d., read-out: KD (nM) for binding of DAF to AeOBP22",1190 ± 261 nM
same,Kd,AeOBP22 [4]; read-out: KD of DAF for AeOBP22,1190 nM
same,quenching of DAF fluorescence upon addition of AeOBP22 (reduction from maximal intensity),AeOBP22 [4]; emission maximum 513 nm,~ 75%
"CCCCC/C=C\C/C=C\C/C=C\C/C=C\CCCC(=O)O [C20:4, arachidonic acid]",Ki,AeOBP22 [3],286 ± 29 nM
same,Kd,AeOBP22 [3]; [7],286 ± 29 nM
same,binding to AeOBP22 judged by NMR,AeOBP22 [1],binding occurs with high affinity
"CCCCC/C=C\C/C=C\CCCCCCCC(=O)O [C18:2, linoleic acid]",Ki,AeOBP22 [3],104 ± 30 nM
same,Kd,AeOBP22 [3]; [7],104 ± 30 nM
Eicosenoic acid [C20:1],Kd,AeOBP22 [3]; [6],102 ± 16 nM
same,Ki,AeOBP22 [3]; [8],102 ± 16 nM
CC(C)=CCCC(C)CCO (centres unmarked) [citronellol],ligand concentration at which large NMR chemical shift changes occur,AeOBP22 [1],> 1 mM
same,binding to AeOBP22 judged by NMR,AeOBP22 [1],binding is weak
"CCCCC/C=C\C/C=C\C/C=C\CCCCC(=O)O [γC18:3, g-Linoleic acid C18:3 (D6 ,9,12)]",Kd,AeOBP22 [3]; [6],111 ± 27 nM
same,Ki,AeOBP22 [3]; [8],111 ± 27 nM
"CC/C=C\C/C=C\C/C=C\CCCCCCCC(=O)O [αC18:3, a-Linoleic acid C18:3 (D9,12,15)]",Kd,AeOBP22 [3]; [6],52 ± 8 nM
same,Ki,AeOBP22 [3]; [8],52 ± 8 nM
same,Ki,"AeOBP22 [5]; pH 5, n = 2, read-out: KI (dissociation constant of the competitor) at pH 5",42 ± 14 nM
same,Kd,"AeOBP22 [5]; pH 5.0, ± s.d., n = 2, read-out: KD (nM) for binding of fatty acid to AeOBP22 at pH 5.0",42 ± 14 nM
same,Kd,"AeOBP22 [5]; pH 6.5 as printed, read-out: binding affinity at pH 6.5 (as printed in text)",52 ± 8 nM
"O=C(O)CCCCCCCCCCCCCCCO [C16-OH, 16-hydroxy-hexadecanoic acid]",competition for binding of the fluorescent reporter (DAF),AeOBP22 [3]; result in words,does not compete
CC(C)=CCC/C(C)=C/CO [geraniol],ligand concentration at which large NMR chemical shift changes occur,AeOBP22 [1],> 1 mM
same,binding to AeOBP22 judged by NMR,AeOBP22 [1],binding is weak
O=Cc1ccccc1 [benzaldehyde],ligand concentration at which large NMR chemical shift changes occur,AeOBP22 [1],> 1 mM
same,binding to AeOBP22 judged by NMR,AeOBP22 [1],binding is weak
